# Earlier results as cited in patent US10959985B1, “Pharmaceutical compositions including carvedilol and methods of using the same” (ECI Pharmaceuticals, LLC, priority 2019, dated 2021).
# Read-outs that look alike come from different tables or passages of the source.
# What was measured:
# [1] = test system: rats
# [2] = test system: humans
# [3] = test system: mice
smiles,measurement,setting,value
"COc1ccccc1OCCNCC(O)COc1cccc2[nH]c3ccccc3c12 (racemic) [Carvedilol, (±) 1-(9H-carbazol-4-yloxy)-3-[[2(2-methoxyphenoxy)ethyl]amino]-2-propanol]",intraperitoneal LD50,[1]; intraperitoneal,769 mg/kg
same,oral LDLO,[1]; oral,8 gm/kg
same,solubility in water,,practically insoluble
same,oral TDLO,[2]; men,5.357 mg/kg
same,oral TDLO,[2]; women,12 mg/kg
same,intraperitoneal LD50,[3]; intraperitoneal,364 mg/kg
same,oral LDLO,[3]; oral,8 gm/kg
